From patent US6720346B2, “Thiazole benzamide derivatives and pharmaceutical compositions for inhibiting cell proliferation” (Agouron Pharmaceuticals, Inc., priority 2001, dated 2004)
Where a name gives a salt, the structure may show the parent alone.

Legend:
[1] = target: T1, CDK2/cyclin A (Homo sapiens, UniProt P24941); assay: Inhibition of CDK2/cyclin A retinoblastoma kinase activity (Ki; % inhibition); type: biochemical; details: for Ki: apparent Ki, CDK2/cyclin A, Rb substrate
T1 construct: made in house; host or cells: CDK2: insect cells (baculovirus); cyclin A: E. coli
Outline: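 Apparent Ki values came from fitting concentration-dependent activity data to competitive (or competitive tight-binding) models, and % inhibition from single 30 nM screens of library compounds. Activity was measured as ³²P/³³P incorporation from 25 μM ATP into an Rb substrate by 10 or 19 nM CDK2/delta cyclin A at 30 °C over 60–75 min, pH 7.4.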

[2] = target: T2, human CDK4/cyclin D3 (Homo sapiens, UniProt P11802); assay: Inhibition of CDK4/cyclin D retinoblastoma kinase activity (Ki; % inhibition); type: biochemical; details: for Ki: apparent Ki, CDK4/cyclin D3, Rb substrate
T2 construct: made in house; host or cells: insect cells co-infected with baculovirus vectors
Outline: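 Radiometric filter-binding read-out: Rb residues 386-928 phosphorylated by 5 nM CDK4/cyclin D3(1-264) from baculovirus-infected insect cells, 25 μM ATP, HEPES pH 7.4, 30 °C. Run 20 min, or 60 min for tight-binding inhibitors. Screening at 30 nM theoretical compound; apparent Ki by competitive-inhibition fitting.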

[3] = tested on: HCT-116 cell line; assay: Inhibition of cell growth, MTT tetrazolium salt assay; type: cell-based; details: for IC50: Homo sapiens, HCT-116, 120 h, MTT, three to five days
Outline: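 Cells in McCoy's 5A medium were given 4 h before compound addition in 0.5% (v/v) DMSO, then incubated 3–5 days at 37 °C, 5% CO2. After 4 h with 0.2 mg/mL MTT, DMSO-solubilized formazan was read at 540 nm; 50% and 90% growth-inhibitory concentrations came from semi-log plots against vehicle controls.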

[4] = HCT-116 cells, 0.25 μM compound

T2 sequence (P11802 whole entry): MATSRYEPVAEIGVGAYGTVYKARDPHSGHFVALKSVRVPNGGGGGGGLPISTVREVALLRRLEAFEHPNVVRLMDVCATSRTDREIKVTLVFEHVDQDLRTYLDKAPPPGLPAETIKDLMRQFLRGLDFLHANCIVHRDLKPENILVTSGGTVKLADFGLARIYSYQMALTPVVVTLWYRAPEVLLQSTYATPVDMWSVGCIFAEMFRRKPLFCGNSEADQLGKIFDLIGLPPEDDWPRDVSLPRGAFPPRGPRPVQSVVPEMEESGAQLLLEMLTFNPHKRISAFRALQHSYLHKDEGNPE
T2 sequence (P30281 1-264 partner limits assumed): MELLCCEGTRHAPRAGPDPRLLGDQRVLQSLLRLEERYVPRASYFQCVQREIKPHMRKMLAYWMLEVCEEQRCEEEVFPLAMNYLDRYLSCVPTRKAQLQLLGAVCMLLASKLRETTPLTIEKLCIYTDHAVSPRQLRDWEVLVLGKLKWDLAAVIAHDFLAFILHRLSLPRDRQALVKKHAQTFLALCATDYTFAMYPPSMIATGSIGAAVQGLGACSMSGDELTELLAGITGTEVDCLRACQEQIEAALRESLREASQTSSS

Row | SMILES | CDK2 % Inhibition at 0.03 μM ([1]; at 0.03 μM) | CDK4 % Inhibition at 0.03 μM ([2]; at 0.03 μM) | HCT-116 % Inhibition at 0.25 μM ([3]; HCT-116, at 0.25 μM) | CDK2 % Inhibition at 0.03 μM ([1]; 0.03 μM compound) | CDK4 % Inhibition at 0.03 μM ([2]; 0.03 μM compound) | HCT-116 % Inhibition at 0.1 μM ([3]; HCT-116 cells, 0.1 μM compound) | HCT-116 % Inhibition at 0.25 μM [3, 4] | other results
1 | CN(C)CCCCNC(=O)c1ccc(Nc2nc(N)c(C(=O)c3c(F)cccc3F)s2)cc1 [Example G93] | −4% | 11% | 58% |  |  |  |  | HCT-116 % Inhibition at 0.1 μM ([3]; HCT-116, at 0.1 μM): 26%
2 | CC(CNC(=O)c1ccc(Nc2nc(N)c(C(=O)c3c(F)cccc3F)s2)cc1)c1ccccc1 (centres unmarked) [Example G118] | 11% | 21% | 48% |  |  |  |  | HCT-116 % Inhibition at 0.1 μM ([3]; HCT-116, at 0.1 μM): 5%
3 | Nc1nc(Nc2ccc(C(=O)Nc3ccc4c(c3)OCO4)cc2)sc1C(=O)c1c(F)cccc1F [Example G52] | 10% | 5% | 65% |  |  |  |  | 
4 | COc1ccc(NC(=O)c2ccc(Nc3nc(N)c(C(=O)c4c(F)cccc4F)s3)cc2)cc1 [Example G54] | 8% | 9% | 86% |  |  |  |  | 
5 | Nc1nc(Nc2ccc(C(=O)Nc3ccc(OC(F)(F)F)cc3)cc2)sc1C(=O)c1c(F)cccc1F [Example G230] |  |  |  | 8% | 20% | 19% | 52% | 
6 | CCN(Cc1ccccc1)C(=O)c1ccc(Nc2nc(N)c(C(=O)c3c(F)cccc3F)s2)cc1 [Example G209] |  |  |  | 9% | 16% | 9% | 50% | 
7 | CCN(CC)CCCC(C)NC(=O)c1ccc(Nc2nc(N)c(C(=O)c3c(F)cccc3F)s2)cc1 (centres unmarked) [Example G239] |  |  |  | 15% | 27% | 21% | 50% | 
8 | Nc1nc(Nc2ccc(C(=O)NCCO)cc2)sc1C(=O)c1c(F)cccc1F [Example G326] |  |  |  | 12% | 22% | 11% | 13% | 
9 | CN1CCC[C@H]1CNC(=O)c1ccc(Nc2nc(N)c(C(=O)c3ccccc3S(C)(=O)=O)s2)cc1 [Example A73, 4-{4-Amino-5-(2-methanesulfonyl-benzoyl)-thiazol-2-ylamino}-N-(1-methyl-pyrrolidin-2S-ylmethyl)-benzamide Trifluoroacetic Acid Salt] |  |  |  |  |  |  |  | Ki [1]: 1200 nM; Ki [2]: 36000 nM; IC50 [3]: > 5000 nM
10 | NC(=O)c1ccc(NC(=O)c2ccc(Nc3nc(N)c(C(=O)c4c(F)cccc4F)s3)cc2)cc1 [Example G85] | 7% | 6% | 56% |  |  |  |  | 
11 | CC(=O)N[C@@H]1CCN(C(=O)c2ccc(Nc3nc(N)c(C(=O)c4c(F)cccc4F)s3)cc2)C1 [Example G373] |  |  |  | −7% | 10% | 31% | 48% | 
12 | Nc1nc(Nc2ccc(C(=O)NCc3ccc(Cl)cc3)cc2)sc1C(=O)c1c(F)cccc1F [Example G258] |  |  |  | 25% | 20% | 41% | 84% | 
13 | COc1cc(CNC(=O)c2ccc(Nc3nc(N)c(C(=O)c4c(F)cccc4F)s3)cc2)cc(OC)c1OC [Example G234] |  |  |  | 35% | 39% | 20% | 63% | 
14 | COc1ccc(NC(=O)c2ccc(Nc3nc(N)c(C(=O)c4c(F)cccc4F)s3)cc2)c(OC)c1 [Example G45] | 16% | 16% | 89% |  |  |  |  | 
15 | CN(C)CCNC(=O)c1cccc(Nc2nc(N)c(C(=O)c3c(F)cccc3F)s2)c1 [F] |  |  |  |  |  |  |  | Ki [1]: 270 nM; Ki [2]: 140 nM; IC50 [3]: 1800 nM
16 | Nc1nc(Nc2ccc(C(=O)NCc3ccc(F)c(F)c3)cc2)sc1C(=O)c1c(F)cccc1F [Example G317] |  |  |  | 27% | 33% | 27% | 87% | 
17 | CCN(Cc1ccncc1)C(=O)c1ccc(Nc2nc(N)c(C(=O)c3c(F)cccc3F)s2)cc1 [Example G28] | 1% | 19% | 66% |  |  |  |  | 
18 | Nc1nc(Nc2ccc(C(=O)NCc3ccccn3)cc2)sc1C(=O)c1c(F)cccc1F [Example G180] | 22% | 29% | 68% |  |  |  |  | HCT-116 % Inhibition at 0.1 μM ([3]; HCT-116, at 0.1 μM): 25%
